Assay results as given in ChEMBL document CHEMBL3872204, “Synthesis and immunopotentiating activity of novel isoxazoline functionalized coumarins” (Eur J Med Chem, 2016).
The source made the active and inactive calls. No cut-off for these calls is given here.

Columns and labels:
Splenic lymphocyte [1] = assay: Immunopotentiating activity in splenic lymphocytes (unknown origin) assessed as effect on proliferation by measuring cell viability pretreated followed by incubation of lymphocytes with ConA for 48 hrs by MTT assay; assay type: functional, cell-based
Splenic lymphocyte [2] = assay: Immunopotentiating activity in splenic lymphocytes (unknown origin) assessed as effect on proliferation by measuring cell viability pretreated followed by incubation of lymphocytes with LPS for 48 hrs by MTT assay; assay type: functional, cell-based
Mus musculus [3] = assay: Immunopotentiating activity in sheep RBC-immunized BALB/c mouse assessed as B-cell activation by measuring IgM antibody titer in serum at 0.001 mg/kg, po for 14 days measured on day 7 post dose by hemagglutinination technique; assay type: functional, organism-based
Mus musculus [4] = assay: Immunopotentiating activity in sheep RBC-immunized BALB/c mouse assessed as B-cell activation by measuring IgM antibody titer in serum at 0.01 mg/kg, po for 14 days measured on day 7 post dose by hemagglutinination technique; assay type: functional, organism-based
Mus musculus [5] = assay: Immunopotentiating activity in sheep RBC-immunized BALB/c mouse assessed as B-cell activation by measuring IgM antibody titer in serum at 0.1 mg/kg, po for 14 days measured on day 7 post dose by hemagglutinination technique; assay type: functional, organism-based
Mus musculus [6] = assay: Immunopotentiating activity in sheep RBC-immunized BALB/c mouse assessed as B-cell activation by measuring IgG antibody titer in serum at 0.001 mg/kg, po for 14 days by hemagglutinination technique; assay type: functional, organism-based
Mus musculus [7] = assay: Immunopotentiating activity in sheep RBC-immunized BALB/c mouse assessed as B-cell activation by measuring IgG antibody titer in serum at 0.01 mg/kg, po for 14 days by hemagglutinination technique; assay type: functional, organism-based
Mus musculus [8] = assay: Immunopotentiating activity in sheep RBC-immunized BALB/c mouse assessed as B-cell activation by measuring IgG antibody titer in serum at 0.1 mg/kg, po for 14 days by hemagglutinination technique; assay type: functional, organism-based
Mus musculus [9] = assay: Immunopotentiating activity in sheep RBC-immunized BALB/c mouse assessed as increase in delayed-type hypersensitivity response by measuring left hind foot pad thickness at 0.001 mg/kg, po qd administered 2 hrs post immunization for 7 days measured 24 to 48 hrs post SRBC challenge by spheromicrometer method; assay type: functional, organism-based
Mus musculus [10] = assay: Immunopotentiating activity in sheep RBC-immunized BALB/c mouse assessed as increase in isolated splenic T-cell proliferation administered orally for 14 days followed by incubation of isolated splenocytes with ConA for 72 hrs by MTT assay; assay type: functional
Mus musculus [11] = assay: Immunopotentiating activity in sheep RBC-immunized BALB/c mouse assessed as increase in isolated splenic T-cell proliferation administered orally for 14 days followed by incubation of isolated splenocytes with LPS for 72 hrs by MTT assay; assay type: functional
Mus musculus [12] = assay: Immunopotentiating activity in sheep RBC-immunized BALB/c mouse assessed as increase in isolated splenic […] proliferation administered orally for 14 days followed by incubation of isolated splenocytes with ConA for 72 hrs by MTT assay; assay type: functional
Mus musculus [13] = assay: Immunopotentiating activity in sheep RBC-immunized BALB/c mouse assessed as increase in isolated splenic B-cell proliferation administered orally for 14 days followed by incubation of isolated splenocytes with LPS for 72 hrs by MTT assay; assay type: functional
Mus musculus [14] = assay: Immunopotentiating activity in sheep RBC-immunized BALB/c mouse assessed as CD4-positive splenic T-cells at 0.001 mg/kg, po for 14 days by flow cytometry (reference value: 20.7 +/- 0.9%); assay type: functional
Mus musculus [15] = assay: Immunopotentiating activity in sheep RBC-immunized BALB/c mouse assessed as CD4-positive splenic T-cells at 0.01 mg/kg, po for 14 days by flow cytometry (reference value: 20.7 +/- 0.9%); assay type: functional
Mus musculus [16] = assay: Immunopotentiating activity in sheep RBC-immunized BALB/c mouse assessed as CD4-positive splenic T-cells at 0.1 mg/kg, po for 14 days by flow cytometry (reference value: 20.7 +/- 0.9%); assay type: functional
Mus musculus [17] = assay: Immunopotentiating activity in sheep RBC-immunized BALB/c mouse assessed as CD8-positive splenic T-cells at 0.001 mg/kg, po for 14 days by flow cytometry (reference value: 13.3 +/- 0.34%); assay type: functional
Mus musculus [18] = assay: Immunopotentiating activity in sheep RBC-immunized BALB/c mouse assessed as CD8-positive splenic T-cells at 0.01 mg/kg, po for 14 days by flow cytometry (reference value: 13.3 +/- 0.34%); assay type: functional
Mus musculus [19] = assay: Immunopotentiating activity in sheep RBC-immunized BALB/c mouse assessed as CD8-positive splenic T-cells at 0.1 mg/kg, po for 14 days by flow cytometry (reference value: 13.3 +/- 0.34%); assay type: functional
Mus musculus [20] = assay: Immunopotentiating activity in sheep RBC-immunized BALB/c mouse assessed as ratio of CD4-positive splenic T-cells to CD8-positive splenic T-cells at 0.001 mg/kg, po for 14 days by flow cytometry (RVB = 1.56 +/- 0.09); assay type: functional
Mus musculus [21] = assay: Immunopotentiating activity in sheep RBC-immunized BALB/c mouse assessed as ratio of CD4-positive splenic T-cells to CD8-positive splenic T-cells at 0.01 mg/kg, po for 14 days by flow cytometry (RVB = 1.56 +/- 0.09); assay type: functional
Mus musculus [22] = assay: Immunopotentiating activity in sheep RBC-immunized BALB/c mouse assessed as ratio of CD4-positive splenic T-cells to CD8-positive splenic T-cells at 0.1 mg/kg, po for 14 days by flow cytometry (RVB = 1.56 +/- 0.09); assay type: functional
Mus musculus [23] = assay: Immunopotentiating activity in sheep RBC-immunized BALB/c mouse assessed as CD4-positive T-cell content in spleen at 0.001 mg/kg, po for 14 days by flow cytometry (reference value: 2.7 +/- 0.12 10^7No_unit); assay type: functional
Mus musculus [24] = assay: Immunopotentiating activity in sheep RBC-immunized BALB/c mouse assessed as CD4-positive T-cell content in spleen at 0.01 mg/kg, po for 14 days by flow cytometry (reference value: 2.7 +/- 0.12 10^7No_unit); assay type: functional
Mus musculus [25] = assay: Immunopotentiating activity in sheep RBC-immunized BALB/c mouse assessed as CD4-positive T-cell content in spleen at 0.1 mg/kg, po for 14 days by flow cytometry (reference value: 2.7 +/- 0.12 10^7No_unit); assay type: functional
Mus musculus [26] = assay: Immunopotentiating activity in sheep RBC-immunized BALB/c mouse assessed as CD8-positive T-cell content in spleen at 0.001 mg/kg, po for 14 days by flow cytometry (reference value: 1.47 +/- 0.04 10^7No_unit); assay type: functional
Mus musculus [27] = assay: Immunopotentiating activity in sheep RBC-immunized BALB/c mouse assessed as CD8-positive T-cell content in spleen at 0.01 mg/kg, po for 14 days by flow cytometry (reference value: 1.47 +/- 0.04 10^7No_unit); assay type: functional
Mus musculus [28] = assay: Immunopotentiating activity in sheep RBC-immunized BALB/c mouse assessed as CD8-positive T-cell content in spleen at 0.1 mg/kg, po for 14 days by flow cytometry (reference value: 1.47 +/- 0.04 10^7No_unit); assay type: functional
Mus musculus [29] = assay: Immunopotentiating activity in sheep RBC-immunized BALB/c mouse assessed as increase in IL2 production in splenocytes administered orally for 14 days followed by incubation with ConA for 48 hrs by ELISA; assay type: functional, cell-based
Mus musculus [30] = assay: Immunopotentiating activity in sheep RBC-immunized BALB/c mouse assessed as increase in interferon-gamma production in splenocytes administered orally for 14 days followed by incubation with ConA for 48 hrs by ELISA; assay type: functional, cell-based
Mus musculus [31] = assay: Immunopotentiating activity in sheep RBC-immunized BALB/c mouse assessed as increase in IL4 production in splenocytes administered orally for 14 days followed by incubation with ConA for 48 hrs by ELISA; assay type: functional, cell-based
Mus musculus [32] = assay: Immunopotentiating activity in sheep RBC-immunized BALB/c mouse assessed as increase in macrophage production by measuring increase in NO production administered orally for 14 days followed by incubation with LPS for 48 hrs by Griess assay; assay type: functional
Mus musculus [33] = species: Mus musculus; assay: Cytotoxicity in BALB/c mouse splenocytes at 100 ug/ml measured after 72 hrs by MTT assay; assay type: toxicity; conditions: splenocyte

Row | SMILES | Activity (Splenic lymphocyte [1]) | Activity (Splenic lymphocyte [2]) | Activity (Mus musculus [3]) | Activity (Mus musculus [4]) | Activity (Mus musculus [5]) | Activity (Mus musculus [6]) | Activity (Mus musculus [7]) | Activity (Mus musculus [8]) | Activity (Mus musculus [9]) | Activity (Mus musculus [10]) | Activity (Mus musculus [11]) | Activity (Mus musculus [12]) | Activity (Mus musculus [13]) | Activity (Mus musculus [14]) [%] | Activity (Mus musculus [15]) [%] | Activity (Mus musculus [16]) [%] | Activity (Mus musculus [17]) [%] | Activity (Mus musculus [18]) [%] | Activity (Mus musculus [19]) [%] | Ratio (Mus musculus [20]) | other results
1 | COc1ccc(C2=NOC(COc3ccc4ccc(=O)oc4c3)C2)c(OC)c1 (stereo unspecified) | Dose-dependent effect | Dose-dependent effect | Active | Active | Active | Active | Active | Active | Active | Dose-dependent effect | Dose-dependent effect | Dose-dependent effect | Dose-dependent effect | 20.3 | 27.2 | 35.3 | 15.4 | 16.2 | 19.9 | 1.32 | Ratio (Mus musculus [21]): 1.67; Ratio (Mus musculus [22]): 1.77; Activity (Mus musculus [23]): 1.16 ×10⁷ No_unit; Activity (Mus musculus [24]): 1.54 ×10⁷ No_unit; Activity (Mus musculus [25]): 1.67 ×10⁷ No_unit; Activity (Mus musculus [26]): 1.19 ×10⁷ No_unit; Activity (Mus musculus [27]): 1.29 ×10⁷ No_unit; Activity (Mus musculus [28]): 1.41 ×10⁷ No_unit; Activity (Mus musculus [29]): Dose-dependent effect; Activity (Mus musculus [30]): Dose-dependent effect; Activity (Mus musculus [31]): Dose-dependent effect; Activity (Mus musculus [32]): Dose-dependent effect; Activity (Mus musculus [33]): Non-Toxic
2 | COc1ccc(C2=NOC(COc3ccc4ccc(=O)oc4c3)C2)cc1 (stereo unspecified) | Dose-dependent effect | Dose-dependent effect | Active | Active | Active | Active | Active | Active | Active | Dose-dependent effect | Dose-dependent effect | Dose-dependent effect | Dose-dependent effect | 30.3 | 34.2 | 40.2 | 16.4 | 19.8 | 21.6 | 1.32 | Ratio (Mus musculus [21]): 1.72; Ratio (Mus musculus [22]): 1.86; Activity (Mus musculus [23]): 1.23 ×10⁷ No_unit; Activity (Mus musculus [24]): 1.61 ×10⁷ No_unit; Activity (Mus musculus [25]): 1.85 ×10⁷ No_unit; Activity (Mus musculus [26]): 1.26 ×10⁷ No_unit; Activity (Mus musculus [27]): 1.35 ×10⁷ No_unit; Activity (Mus musculus [28]): 1.48 ×10⁷ No_unit; Activity (Mus musculus [29]): Dose-dependent effect; Activity (Mus musculus [30]): Dose-dependent effect; Activity (Mus musculus [31]): Dose-dependent effect; Activity (Mus musculus [32]): Dose-dependent effect; Activity (Mus musculus [33]): Non-Toxic
